Assay results published in US20070254946A1, “Hair Growth Stimulants” (priority 2003, published 2007).

How the values were obtained:
hair-matrix cells = assay: Proliferation effect of cultured hair-matrix cells; type: cell-based, Mouse; details: cultured 6 days; for Relative value of the number of cells: control group = 100%
Protocol: Mouse hair tissues were collected and hair-matrix cells were cultured by the method disclosed by Tanigaki, et al., using serum free media (Tanigaki, et al., (1990), Arch. Dermatol. Res. 282: 402-407).
On the first day after the start of culturing hair-matrix cells, the culture media were changed to those containing the above-mentioned chromene compounds.
After culturing the hair-matrix cells for 6 days, they were separated from the culture dishes and the number of cells was counted. The effect of each chromene compound is shown by a relative ratio with the number of cells in the control group (the group cultured in a serum-free medium) being defined as 100%.

[1] = reported in Annual Report of Toyama Prefectural Institute for Pharmaceutical Research, 1998; cited from earlier work

SMILES	Proliferation rate (hair-matrix cells; 1 μg/ml in culture medium) [% increase over control]	Relative value of the number of cells (hair-matrix cells; 1 μg/ml in culture medium) [% control]	Proliferation rate (hair-matrix cells; 10 μg/ml in culture medium) [% increase over control]	Relative value of the number of cells (hair-matrix cells; 10 μg/ml in culture medium) [% control]	acute toxicity [1]
COc1cc(C(C)=O)cc2c1OC(C)(C)C=C2 [Acetovanillochromene, 6-acetyl-8-methoxy-2,2-dimethylchromene]	33	133	35	135	
COc1c(C(C)=O)cc2c(c1OC)OC(C)(C)C=C2 [Methylripariochromene A, 6-acetyl-7,8-dimethoxy-2,2-dimethylchromene]	12	112	53	153	no toxicity
COc1c(C(C)O)cc2c(c1OC)OC(C)(C)C=C2 (stereo not shown) [Orthochromene A, 6-(1-hydroxyethyl)-7,8-dimethoxy-2,2-dimethylchromene]	18	118	44	144	
